Article PMC6259260, “3-Acetyloxy-2-cyano-2-(alkylaminocarbamoyl)propyl Groups as Biodegradable Protecting Groups of Nucleoside 5´-mono-Phosphates” (Molecules, 2011)
Like-named read-outs stand apart in the source and are kept apart here. Marks after values point to notes of the source that are not given here.

What was measured:
[1] = test system: hog liver carboxyesterase (HLE); design: method as in PMID 19462989; conditions: cited from earlier work
[2] = design: method as in PMID 19462989; conditions: non-enzymatic, cited from earlier work; for half-life for the disappearance: pH 7.5, 25 °C
[3] = test system: hog liver carboxyesterase (HLE); experiment: Hog liver carboxyesterase (HLE)-catalyzed hydrolysis/deprotection followed by HPLC; format: in vitro ADME; conditions: for level of accumulation of the intermediate, of the initial concentration of 1: during HLE (26 units mL^-1) hydrolysis of 1, pH 7.5, 37 °C; for half-life at 0.4 mmol L^-1: hog liver carboxyesterase (HLE)
Experimental: The subsequent retro-aldol condensation of 14 to diester 4 ([M+H]^+ = 595.3; Reaction C) was, however, so fast that the amount of 14 remained less than 5% of the initial concentration of 1.
(§1) The reactions were carried out in sealed tubes immersed in a thermostated water bath (37.0 ± 0.1 °C). The oxonium ion concentration of the reaction solution (3.5 mL) was adjusted with glycine, 2-[4-(2-hydroxyethyl)piperazin-1-yl)]ethanesulfonic acid (HEPES) and 2-(N-morpholino)ethanesulfonic acid (MES) buffers. The ionic strength of the solutions was adjusted to 0.1 mol L^-1 with sodium chloride. The hydronium ion concentration of the buffer solutions was calculated with the aid of the known pKa values of the buffer acid under the experimental conditions. The initial substrate concentration was ca. 0.4 mmol L^-1.
The enzymatic hydrolysis was carried out with Hog Liver Esterase (26 units mL^-1) in a 2-[4-(2-hydroxyethyl)piperazin-1-yl)]ethanesulfonic acid (HEPES) buffer (0.040/0.024 mol L^-1) at pH 7.5 and 37 °C. The samples (200 μL) withdrawn at appropriate intervals were made acidic (pH 2) with 1 mol L^-1 aqueous hydrogen chloride to inactivate the enzyme and to quench the hydrolysis, cooled in an ice-bath and filtered with minisart RC 4 filters (0.45 μm). The composition of the samples was analyzed on an ODS Hypersil C18 column (4 × 250 mm 5 μm, flow rate 1 mL min^-1), using a mixture of acetic acid/sodium acetate buffer (0.045/0.015 mol L^-1) and MeCN, containing ammonium chloride (0.1 mol L^-1). A good separation of the product mixtures of 2 was obtained on using a 5 min isocratic elution with the buffer containing 2% MeCN, followed by a linear gradient (23 min) up to 40.0% MeCN. Signals were recorded on a UV-detector at a wavelength of 267 nm. The reaction products were identified by the mass spectra (LC/MS) using a mixture of water and acetonitrile containing a formic acid (0.1%) as an eluent (Gemini C18 column (2 × 150 mm 5 μm, flow rate 200 μL min^-1). The first order rate constants for the non-enzymatic hydrolysis of triester 1 were obtained by applying first-order rate-law to the diminution of the concentration of the starting material. The enzymatic deacetylations obeyed first-order kinetics at the high HLE concentrations employed.

[4] = test system: hog liver carboxyesterase (HLE); experiment: HLE-triggered hydrolysis in the presence of glutathione (GSH), followed by HPLC-ESI-MS; format: in vitro ADME; conditions: [GSH] = 5.4 mM
Experimental: The hydrolytic reactions of 1 was also carried out in the presence of glutathione ([GSH] = 5.4 mM) and carboxyesterase ([HLE] = 28.0 units mL^-1) in a 2-(N-morpholino)ethanesulfonic acid (MES) buffer (0.005/0.005 mol L^-1) at pH 6.2 and 37 °C. Under these conditions, the half-live for the deacetylation of 1 was 18 h. In 2 days, the starting material was converted almost quantitatively to a mixture of acetylated and deacetylated phosphodiester 4 and 16 ([4]/[16] is 1:1). At this stage, 2-cyano-N-(2-phenyl)ethylacrylamide (17) was captured as the glutathione conjugate (18; tR = 24.3 min, Route E). Product 18 was detected by both HPLC and LC-MS analysis ([M+H]^+ = 508.8; see Figure 3). In addition, glutathione was converted to its oxidized form glutathione disulfide (GSSG; [M+H]^+ = 613.5 and tR = 9.9 min).
as §1, with “The initial substrate concentration was ca. 0.4 mmol L^-1.” left out

[5] = Non-enzymatic hydrolysis (hydrolytic stability) in buffer followed by RP HPLC; format: physicochemical; conditions: pH 7.5, 37 °C
Experimental: Hydrolysis of triester 1 was studied at pH 7.5 and 37 °C by analyzing the composition of the aliquots withdrawn from the reaction mixture at appropriate time intervals by RP HPLC. The products formed were identified by spiking with authentic samples and by mass spectrometric analysis (HPLC/ESI-MS). At pH 7.5-10, hydrolysis of the first acetic ester linkages of 1 (Reaction A in Scheme 4) was first-order in hydroxide-ion concentration. […] The subsequent departure of the remnants of this protecting group by retro-aldol condensation gave diester 4 (Route C) without accumulation of the monodeacetylated triester 14 as an intermediate. […]
The reactions were carried out in sealed tubes immersed in a thermostated water bath (37.0 ± 0.1 °C). […] The hydronium ion concentration of the buffer solutions was calculated with the aid of the known pKa values of the buffer acid under the experimental conditions. […]
The enzymatic hydrolysis was carried out with Hog Liver Esterase (26 units mL^-1) in a 2-[4-(2-hydroxyethyl)piperazin-1-yl)]ethanesulfonic acid (HEPES) buffer (0.040/0.024 mol L^-1) at pH 7.5 and 37 °C. […] The composition of the samples was analyzed on an ODS Hypersil C18 column (4 × 250 mm 5 μm, flow rate 1 mL min^-1), using a mixture of acetic acid/sodium acetate buffer (0.045/0.015 mol L^-1) and MeCN, containing ammonium chloride (0.1 mol L^-1). […]

[6] = HLE 26 units mL^-1, pH 7.5, 37 °C
[7] = HLE 26 units mL^-1, pH 7.5, 25 °C

For CCOC(=O)C(COCOC(C)=O)(COP(=O)(OC[C@H]1O[C@@H](n2cc(C)c(=O)[nH]c2=O)C[C@@H]1O)OCC(COCOC(C)=O)(C(=O)OCC)C(=O)OCC)C(=O)OCC [compound 2, thymidine 5´-bis[3-acetyloxymethoxy-2,2-bis(ethoxycarbonyl)propyl]phosphate], the “t1/2 Reaction A” value [1, 6] is listed as 0.17 min, the “t1/2 Reaction B” value [1, 6] is listed as 0.90 min and the “t1/2 Reaction C” value [1, 6] is listed as 10.4 min. For the same compound, the “t1/2 Reaction D” value [1, 6] was 3.5 h and the “half-life, first of the consecutive deacetylations” value ([2]; pH 7.5, 37 °C) was 32 h.

With Cc1cn(C2CC(O)C(COP(=O)(O)OCC(C#N)(CO)C(=O)NCCc3ccccc3)O2)c(=O)[nH]c1=O (stereo not shown) [compound 16] the “level of accumulation of the intermediate, of the initial concentration of 1” value [3] was “below 5%”.

For CCOC(=O)C(COC(C)=O)(COP(=O)(OC[C@H]1O[C@@H](n2cc(C)c(=O)[nH]c2=O)C[C@@H]1O)OCC(COC(C)=O)(C(=O)OCC)C(=O)OCC)C(=O)OCC [compound 3, thymidine 5´-bis[3-acetyloxy-2,2-bis(ethoxycarbonyl)propyl]phosphate], the “t1/2 Reaction B” value [1, 7] is given as 31^a min, the “t1/2 Reaction C” value [1, 7] is given as 31^a min and the “t1/2 Reaction A” value [1, 6] is given as 3.2 min. For the same compound, the “t1/2 Reaction D” value [1, 6] was 151 h and the “half-life for the disappearance” value [2] was 20 days.

For CC(=O)OCC(C#N)(COP(=O)(OCC1OC(n2cc(C)c(=O)[nH]c2=O)CC1O)OCC(C#N)(CO)C(=O)NCCc1ccccc1)C(=O)NCCc1ccccc1 (stereo not shown) [compound 14], the “share of deacetylation to 15 (Reaction B) in the total disappearance of 14” value [3, 6] was “approximately 10%”, the “share of retro-aldol condensation to diester 4 in the overall breakdown of 14” value ([3]; HLE, pH 7.5, 37 °C) was 90% and the “level of accumulation of the intermediate, of the initial concentration of 1” value [3] was “less than 5%”.

With CC(=O)OCC(C#N)(COP(=O)(O)OCC1OC(n2cc(C)c(=O)[nH]c2=O)CC1O)C(=O)NCCc1ccccc1 (stereo not shown) [compound 4] the half-life at 0.4 mmol L^-1 ([3]; hog, HLE 26 units mL^-1, pH 7.5, 37 °C, read-out: half-life for the disappearance (converted)) was 47 h.

With C=C(C#N)C(=O)NCCc1ccccc1 [compound 17, 2-cyano-N-(2-phenylethyl)acrylamide] the “capture of the electrophilic by-product by glutathione” value ([4]; [HLE] = 28.0 units mL^-1, pH 6.2, 37 °C, detected as conjugate 18) was “largely trapped by glutathione”.

In the case of CC(=O)OCC(C#N)(COP(=O)(OCC1OC(n2cc(C)c(=O)[nH]c2=O)CC1O)OCC(C#N)(COC(C)=O)C(=O)NCCc1ccccc1)C(=O)NCCc1ccccc1 (stereo not shown) [compound 1, Thymidine 5´-bis[3-acetyloxy-2-cyano-2-(2-phenylethylcarbamoyl)propyl]phosphate], the “conversion to 5´-TMP, times as fast as 3 (comparison of half-lives of Reaction D)” value ([3]; HLE, pH 7.5, 37 °C) is reported as 3 times, the half-life at 0.4 mmol L^-1 ([3]; pig, HLE 26 units mL^-1, pH 7.5, 37 °C, I = 0.1 mol L^-1, read-out: t1/2 Reaction A (enzymatic deacetylation of triester, disappearance of starting material)) is reported as 0.0633 h and the half-life at 0.4 mmol L^-1 ([4]; hog, [HLE] = 28.0 units mL^-1, MES buffer, pH 6.2, 37 °C, read-out: half-life for the deacetylation (converted)) is reported as 18 h. The half-life at 0.4 mmol L^-1 ([5]; aqueous buffer (glycine, HEPES or MES buffers), no enzyme, read-out: half-life, hydrolysis of the first acetic ester linkage (Reaction A) (converted)) was 28 h and the “first-order rate constant k, hydrolysis of the first acetic ester linkage (Reaction A)” value [5] was 7e-06 s⁻¹.

For CCOC(=O)C(COC(C)=O)(COP(=O)(O)OC[C@H]1O[C@@H](n2cc(C)c(=O)[nH]c2=O)C[C@@H]1O)C(=O)OCC [compound 6], the “half-life for the disappearance” value [2] is listed as 160.4 days.
